According to patent publication US6225307A, “Viral treatment” (priority 2000, dated 2001):
pIC50: −log10 of the molar value.

Molecular target: HIV-1 integrase (Human immunodeficiency virus type 1 group M subtype B, UniProt P12497)
Test: Integrase inhibition assay
Format: biochemical
Excerpt: A biochemical integrase assay described by Craigie et at (HIV, vol. 2: A practical Approach) Biochemistry, Molecular Biology and Drug Discovery Ed. J. Karn 1995) to screen agents for their ability to inhibit HIV-1 integrase. In this system, a kinased oligonucleotide serves as the target of 3' processing and the subsequent strand transfer reaction. The 3' processing reaction involves the removal of 2 nucleotides from the 31 ends of the substrate and this is followed by the strand transfer reaction in which the 3' ends are joined to the exposed 5' ends. The 20 μl reaction mixture contains 25 mM MOPS (pH 7.2), […] BSA, 10 mM , β-mercaptoethanol, 10% glycerol, 7.5 mM MnCl2, 25 nM (7 ng) substrate (Oligo's Etc., Wilsonville, Ore.) and 200 nM (128 ng) integrase (NIAID AIDS Research and Reference Reagent Program, Bethesda, Md.). The reaction proceeds at 37° C. for 1-2 hours and is terminated by the addition of 20 μl of sequencing stop solution (USB Amersham, Arlington Heights, Ill.). The reaction products are visualized by autoradiography following electrophoresis in 15% polyacrylamide 6M Urea gel. The substrate migrates as a 30 mer, the product of 3' processing migrates as an N-2 band and the strand transfer products migrate more slowly at various sizes larger than the substrate.

**Q.** Which results are given for `CCC1(c2cccc(OC(=O)Nc3ccc(Cl)cc3)c2)CCCCN(C)C1=O` (stereo not drawn) [(4-chlorophenyl)-carbamic acid, 3-(hexahydro-3-ethyl-1-methyl-2-oxo-1H-azepin-3-yl) 2 phenyl ester]?
**A.** pIC50: < 3.60; activity as an integrase inhibitor: did not show activity; HIV-1 integrase inhibition, mean (0.1 μg/ml): 9908; HIV-1 integrase inhibition, sample 1 (0.1 μg/ml): 10151.6; HIV-1 integrase inhibition, sample 2 (0.1 μg/ml): 9664.3; remaining activity at 0.1 µg/mL (0.1 μg/ml, read-out: % no drug control): 104%; HIV-1 integrase inhibition, mean (1 μg/ml): 10075; HIV-1 integrase inhibition, sample 1 (1 μg/ml): 9644.6; HIV-1 integrase inhibition, sample 2 (1 μg/ml): 10505.5; remaining activity at 1 µg/mL (1 μg/ml, read-out: % no drug control): 105%; HIV-1 integrase inhibition, mean (10 μg/ml): 10097; HIV-1 integrase inhibition, sample 1 (10 μg/ml): 10964.5; HIV-1 integrase inhibition, sample 2 (10 μg/ml): 1129.7; remaining activity at 10 µg/mL (10 μg/ml, read-out: % no drug control): 116%; HIV-1 integrase inhibition, mean (100 μg/ml): 10942; HIV-1 integrase inhibition, sample 1 (100 μg/ml): 9648.5; HIV-1 integrase inhibition, sample 2 (100 μg/ml): 12235.7; remaining activity at 100 µg/mL (100 μg/ml, read-out: % no drug control): 114%
